{"source": "patent US11122801B2", "about": "“Inhibitors of enzymes that confer pesticide resistance” (APRESLABS LTD., priority 2015, dated 2021)", "key": {"[1]": {"system": "P450 activity derived from Meligethes aeneus", "assay": "P450 activity by deethylation of ethoxycoumarin (Example 7)", "type": "biochemical", "details": "equal concentrations, 30 ug/incubation", "description": "P450 activity was measured by the deethylation of ethoxycoumarin.\n(30 ug/incubation) as used in Example 5."}, "[2]": {"target": "T1, resistance-associated esterase, E4 (Myzus persicae, UniProt P35501)", "T1 sequence (P35501 24-552)": "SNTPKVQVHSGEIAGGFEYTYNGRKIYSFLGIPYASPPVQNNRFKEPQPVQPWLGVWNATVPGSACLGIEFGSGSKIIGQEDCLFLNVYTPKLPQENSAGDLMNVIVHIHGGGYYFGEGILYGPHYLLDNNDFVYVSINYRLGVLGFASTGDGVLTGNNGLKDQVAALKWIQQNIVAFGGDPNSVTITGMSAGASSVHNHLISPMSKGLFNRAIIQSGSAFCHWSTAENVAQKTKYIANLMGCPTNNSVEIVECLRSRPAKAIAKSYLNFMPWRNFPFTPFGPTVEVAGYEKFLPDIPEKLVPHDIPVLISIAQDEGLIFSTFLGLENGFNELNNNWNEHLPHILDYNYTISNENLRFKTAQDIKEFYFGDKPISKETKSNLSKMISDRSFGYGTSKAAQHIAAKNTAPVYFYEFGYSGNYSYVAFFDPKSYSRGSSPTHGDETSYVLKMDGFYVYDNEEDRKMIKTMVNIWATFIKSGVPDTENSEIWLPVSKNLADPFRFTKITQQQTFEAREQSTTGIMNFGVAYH", "assay": "Inhibition of purified resistance-associated esterase E4, para-nitrophenyl acetate substrate", "type": "biochemical, M. persicae", "details": "3 μL 1% synergist, 10 minutes incubation, 1 mM para-nitrophenyl acetate, 405 nm", "description": "The assay used 1 mM para-nitrophenyl acetate as a substrate. 10 μL dilute E4 in 40 μL phosphate buffer (pH 7.0) was incubated with 3 μL 1% synergist for 10 minutes. 200 μL of 1 mM para-nitrophenyl acetate was added and the remaining activity was measured at 405 nm in a microplate spectrophotometer (Molecular Devices). Inhibition by the same concentration of PBO is shown for comparison."}, "[3]": {"system": "P450 activity derived from insecticide-resistant B-type B. tabaci", "assay": "P450 activity by deethylation of ethoxycoumarin (Example 5)", "details": "1% (30 ug/incubation), 10 minutes incubation, 7-ethoxycoumarin", "description": "P450 activity was measured by the deethylation of ethoxycoumarin. 50 μL of the enzyme in the presence/absence of synergists was incubated for 10 minutes after which […] of 0.5 mm 7-ethyoxycoumarin in a phosphate buffer (pH 7.8) was added/incubated for a further 5 minutes at 30° C. after which 10 μL of 9.6 mm NaDPH was added. Fluorometric units (Fu) were measured with excitation wavelengths of 370 nm and 460 nm."}, "[4]": {"system": "Houseflies (Musca domestica)", "assay": "Housefly topical mortality with α-cypermethrin and Syn A (Example 1)", "type": "in vivo", "details": "α-cypermethrin alone, 1 μL of 0.0025 g L^−1, after 24 hrs", "description": "Houseflies (Musca domestica) were treated with 1 μL of a diagnostic concentration (0.0025 g L^−1) of α-cypermethrin, such that about 20% of the flies had died after 24 hrs.\nWith the addition of 1% ‘Syn A’, (i.e. 10 ug/fly) the potassium salts of fatty acids (C14-C18) obtained as a by-product of olive oil production, the mortality increased to about 70% after 24 hours. The potassium salt synergist was applied first, and the insecticide was applied within 1 hr of the application of the synergist.\nThe mortality rate when Syn A was used on its own was about 10%."}}, "data": [{"compound": "CCCCOCCOCCOCc1cc2c(cc1CCC)OCO2", "note": "[PBO, piperonyl butoxide]", "values": [{"measurement": "inhibition of P450 activity", "setting": "[1]", "result": "inhibition"}]}, {"compound": "CCCCC/C=C\\C/C=C\\CCCCCCCC(=O)O", "note": "[linoleic acid]", "values": [{"measurement": "inhibition of esterase E4", "setting": "[2]", "result": "inhibition"}]}, {"compound": "CCCCCCCC/C=C\\CCCCCCCC(=O)O", "note": "[oleic acid]", "values": [{"measurement": "inhibition of P450 activity", "setting": "[3]", "result": "inhibition"}, {"measurement": "inhibition of esterase E4", "setting": "[2]", "result": "inhibition"}]}, {"compound": "CC1(C)C(C=C(Cl)Cl)C1C(=O)OC(C#N)c1cccc(Oc2ccccc2)c1", "note": "(stereo not drawn) [α-cypermethrin]", "values": [{"measurement": "flies died (mortality)", "setting": "[4]", "result": "about 20%"}]}]}
